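Grown in 96-well plates, cells were treated for 48 hours with each compound at five concentrations. Insufficient inhibition: endpoint recorded as highest concentration tested. TGI: total growth inhibition.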
What was measured:
Experiment in all cases: NCI-60 cell line screen, 48 h
[1] = system: M14 melanoma
[2] = system: ACHN renal
[3] = system: DU-145 prostate
[4] = system: RXF 393 renal
[5] = system: NCI/ADR-RES ovarian
[6] = system: MALME-3M melanoma
[7] = system: OVCAR-8 ovarian
[8] = system: HOP-62 NSCLC
[9] = system: SK-OV-3 ovarian
[10] = system: MDA-N
[11] = system: K-562 leukemia
[12] = system: UACC-62 melanoma
[13] = system: SF-268 CNS
[14] = system: MCF7 breast
[15] = system: COLO 205 colon
[16] = system: RPMI-8226 leukemia
[17] = system: OVCAR-3 ovarian
[18] = system: HT29 colon
[19] = system: SNB-19 CNS
[20] = system: HCT-15 colon
[21] = system: HL-60(TB) leukemia
[22] = system: LOX IMVI melanoma
[23] = system: U251 CNS
[24] = system: PC-3 prostate
[25] = system: TK-10 renal
[26] = system: SK-MEL-28 melanoma
[27] = system: SW-620 colon
[28] = system: SK-MEL-2 melanoma
[29] = system: CAKI-1 renal
[30] = system: NCI-H23 lung
[31] = system: MOLT-4 leukemia
[32] = system: MDA-MB-231 breast
[33] = system: NCI-H522 lung
[34] = system: SNB-75 CNS
[35] = system: MDA-MB-435
[36] = system: SN12C renal
[37] = system: HCT-116 colon
[38] = system: SK-MEL-5 melanoma
[39] = system: SR leukemia
[40] = system: BT-549 breast
[41] = system: NCI-H226 lung
[42] = system: OVCAR-4 ovarian
[43] = system: T-47D breast
[44] = system: 786-0 renal
[45] = system: NCI-H460 lung
[46] = system: HCC-2998 colon
[47] = system: UACC-257 melanoma
[48] = system: SF-295 CNS
[49] = system: EKVX NSCLC
[50] = system: KM12 colon
[51] = system: UO-31 renal
[52] = system: A549 NSCLC
[53] = system: IGROV1 ovarian
[54] = system: HS 578T breast
[55] = system: OVCAR-5 ovarian
[56] = system: CCRF-CEM leukemia
[57] = system: A498 renal
[58] = system: HOP-92 NSCLC

`CC1=C(C(=O)OC(C)C)C(c2ccccc2[N+](=O)[O-])C(C(=O)OC(CO[N+](=O)[O-])CO[N+](=O)[O-])=C(C)N1` (configuration not stated) was tested, and the TGI [1] was 14.3 µM, the TGI [2] was 23.7 µM and the TGI [3] was over 100 µM. The TGI [4] was 15.5 µM, the TGI [5] was 12.2 µM and the TGI [6] was 23.6 µM. The TGI [7] was 22 µM, the TGI [8] was 11.2 µM and the TGI [9] was 12.6 µM. It also gave a TGI [10] of 8.43 µM, a TGI [11] of 71.6 µM and a TGI [12] of 8.14 µM. The TGI [13] was 16.8 µM, the TGI [14] was 27.9 µM and the TGI [15] was 38.8 µM. The TGI [16] was over 100 µM, the TGI [17] was 76.7 µM and the TGI [18] was 7.98 µM. It also gave a TGI [19] of 23.8 µM, a TGI [20] of 16.2 µM and a TGI [21] of over 100 µM. The TGI [22] was 11.3 µM, the TGI [23] was 13.4 µM and the TGI [24] was 12.2 µM. The TGI [25] was over 100 µM, the TGI [26] was 17.9 µM and the TGI [27] was 18.9 µM. For the same molecule, the TGI [28] was 9.64 µM, the TGI [29] was 19.3 µM and the TGI [30] was 39.2 µM. The TGI [31] was 5.9 µM, the TGI [32] was 35.4 µM and the TGI [33] was 8.45 µM. It also gave a TGI [34] of 8.19 µM, a TGI [35] of 13.2 µM and a TGI [36] of 52.6 µM. It also gave a TGI [37] of 11.4 µM, a TGI [38] of 4.78 µM and a TGI [39] of over 100 µM. The TGI [40] was 26 µM, the TGI [41] was 28.5 µM and the TGI [42] was 22.4 µM. It also gave a TGI [43] of over 100 µM, a TGI [44] of 14.4 µM and a TGI [45] of 16 µM. The TGI [46] was 43 µM, the TGI [47] was 15.7 µM and the TGI [48] was 6.95 µM. The TGI [49] was 18.8 µM, the TGI [50] was 22.8 µM and the TGI [51] was 16.2 µM. For the same molecule, the TGI [52] was 12.9 µM, the TGI [53] was 27.9 µM and the TGI [54] was 25.8 µM. It also gave a TGI [55] of over 100 µM.

With `Nc1cccc(OCc2nc(N)nc(N)c2-c2ccc(Cl)cc2)c1` the TGI [1] was over 100 µM, the TGI [2] was over 100 µM and the TGI [3] was over 100 µM. The TGI [4] was over 100 µM, the TGI [5] was over 100 µM and the TGI [6] was over 100 µM. The TGI [7] was over 100 µM, the TGI [8] was over 100 µM and the TGI [56] was 29.2 µM. It also gave a TGI [57] of over 100 µM, a TGI [9] of over 100 µM and a TGI [10] of over 100 µM. The TGI [11] was over 100 µM, the TGI [12] was over 100 µM and the TGI [13] was over 100 µM. The TGI [14] was over 100 µM, the TGI [15] was 44.1 µM and the TGI [16] was over 100 µM. The TGI [17] was over 100 µM, the TGI [18] was over 100 µM and the TGI [19] was over 100 µM. It also gave a TGI [20] of over 100 µM, a TGI [21] of 77.3 µM and a TGI [22] of over 100 µM. The TGI [23] was over 100 µM, the TGI [24] was over 100 µM and the TGI [25] was over 100 µM. For the same molecule, the TGI [26] was over 100 µM, the TGI [27] was over 100 µM and the TGI [28] was over 100 µM. It also gave a TGI [29] of over 100 µM, a TGI [30] of over 100 µM and a TGI [31] of over 100 µM. It also gave a TGI [32] of over 100 µM, a TGI [33] of over 100 µM and a TGI [34] of over 100 µM. For the same molecule, the TGI [35] was over 100 µM, the TGI [36] was over 100 µM and the TGI [37] was over 100 µM. It also gave a TGI [38] of over 100 µM, a TGI [39] of over 100 µM and a TGI [40] of over 100 µM. For the same molecule, the TGI [41] was 79.5 µM, the TGI [42] was over 100 µM and the TGI [43] was over 100 µM. It also gave a TGI [44] of over 100 µM, a TGI [45] of over 100 µM and a TGI [47] of over 100 µM. It also gave a TGI [48] of over 100 µM, a TGI [49] of over 100 µM and a TGI [50] of over 100 µM. For the same molecule, the TGI [51] was over 100 µM, the TGI [58] was over 100 µM and the TGI [52] was over 100 µM. It also gave a TGI [53] of over 100 µM, a TGI [54] of over 100 µM and a TGI [55] of over 100 µM.
